From patent US12172968B1, “4-[4,4-bis(4-chlorophenyl)-2,5-dioxoimidazolidin-1-yl]butanoic acid as an antimicrobial compound” (KING FAISAL UNIVERSITY, priority 2024, dated 2024)

Key:
Type in all cases: cell-based
Conditions in all cases: after 10, 20, 40 and 60 minutes at all dilutions 1:100, 1:200, 1:400, 1:800
[1] = test system: Staphylococcus aereus; assay: Antimicrobial testing by agar dilution, St. Aereus
Protocol: (§1) The antimicrobial properties of the 4-[4,4-bis(4-chlorophenyl)-2,5-dioxoimidazolidin-1-yl]butanoic acid were studied by the method of agar dilution. Test solutions of each compound was prepared in concentration of 1% using dimethylformamide as a solvent then they are diluted in physiological solution to obtain the final experimental dilutions 1:100, 1:200, 1:400, 1:800. The effect of these substances are compared with furacillin in a controllable study. The testing microbes used were gram positive bacteria Staphylococcus aereus, gram negative bacteria Escherichia Coli, Pseudomonas aeruginosa and Candida albicans fungi were taken. The experiments used for this survey were meat-pentonlu agar (EPA) for cultivation of bacteria and Saburo environment for fungi. Each experiment used iml of test solution on each plate 500 min. Add 2 drops of emulsified with microbes feel. All experimental samples were taken from the agar after 10, 20, 40, 60 minutes in the environment on the basis of Patrk planted. Bacteria were cultivated at a temperature of 37° C. for 1 day and the mushroom was kept in a thermostat for […] at a temperature of 28° C. in the. Then results were checked.

[2] = test system: Escherichia Coli; assay: Antimicrobial testing by agar dilution, E. Coli
Protocol: as §1

[3] = test system: Candida albicans; assay: Antimicrobial testing by agar dilution, Candida albicans
Protocol: as §1

[4] = test system: Pseudomonas aeruginosa; assay: Antimicrobial testing by agar dilution, Ps. aeruginosa
Protocol: as §1

Measured: inhibition activity (summary in words)

O=C(O)CCCN1C(=O)NC(c2ccc(Cl)cc2)(c2ccc(Cl)cc2)C1=O [4-[4,4-bis(4-chlorophenyl)-2,5-dioxoimidazolidin-1-yl]butanoic acid]
higher inhibition activity: all assays above
